Experimental data reported in US8778871B2 (Takeda Pharmaceutical Company Limited, priority 2004, dated 2014).
Non-standard residues stand in square brackets, D forms with d. Residues, ends and D or L forms follow the SMILES beside them. No end group written: not given here. *: point of attachment. Arg(Me) = CNC(=N)NCCC[C@H](N)C(=O)O; Hydrocinnamoyl = O=C(CCc1ccccc1)*; Bz = O=C(c1ccccc1)*; azaGly = NNC(=O)O

Experiments:
hOT7T175 [1] = biological target: T1, hOT7T175 (Homo sapiens, UniProt Q969F8); experiment: Intracellular Ca ion level-increasing activity using FLIPR (180 seconds; specific activity to Metastin (1-54)); type: cell-based; conditions: hOT7T175/CHO, change in intracellular calcium ion level for 180 seconds, Tables 21-23
T1 construct: expressed in transfected cells

hOT7T175 [2] = biological target: T2, hOT7T175 (Homo sapiens, UniProt Q969F8, L364H); type: cell-based; conditions: hOT7T175/CHO, FLIPR, evaluation for 40 seconds after initiation of the reaction
T2 construct: expressed in transfected cells
Method: The intracellular Ca ion level-increasing activity was measured using FLIPR as in TEST EXAMPLE 2.

[3] = Blood testosterone level decreasing effect in mature male rat (2 mM peptide solution, ALZET osmotic pump); type: in vivo; conditions: 2 mM peptide solution in distilled water, ALZET osmotic pump s.c., 6 days, Tables 28 and 29
Method: (§1) This peptide solution was filled in 5 ALZET osmotic pumps (Model 2001, 0.2 ml in volume, release rate: 0.001 ml/hr, DURECT Corporation). The ALZET pumps filled with the peptide solution were implanted subcutaneously in 5 CD(SD)IGS male rats of 9 weeks old after birth (Charles River Japan, Inc.) on the back under ether anesthesia by one pump for one animal. For negative control, distilled water (Otsuka Pharmaceutical Co., Ltd.) was filled in 5 ALZET osmotic pumps, which were similarly implanted in 5 male CD(SD)IGS rats (Charles River Japan, Inc.), respectively. These pump-implanted rats were fed for 6 days under normal feeding conditions. After weighing, the animal was decapitated to collect blood. After 0.03 ml/ml blood of aprotinin solution (Trasylol, Bayer) containing 0.1 mg/ml EDTA.2Na was added to blood, the mixture was centrifuged at 1,800 G for 25 minutes to isolate/recover plasma. From the plasma obtained, 0.05 ml was applied to radioimmunoassay (DPC.Total Testosterone Kit, Diagnostic Products Corporation) to measure the plasma testosterone level of each rat. The value below the limit of measurement (0.04 ng/ml of plasma level) in radioimmunoassay was treated as 0. A mean value of the testosterone levels from 5 rats receiving the peptide was calculated and a relative value (percent) of the mean value to a mean value from 5 rats receiving distilled water.

[4] = Blood testosterone level decreasing effect in mature male rat (0.1 mM peptide solution); type: in vivo
Method: as §1
In a manner similar to TEST EXAMPLE 14, evaluation was made using 0.1 mM peptide solution and a part of the results obtained are shown in TABLE 30.

hOT7T175 [5] = biological target: T2, hOT7T175; experiment: Intracellular Ca ion level-increasing activity using FLIPR (180 seconds; specific activity to Metastin (1-54)); type: cell-based; conditions: hOT7T175/CHO, relative to Metastin (1-54) = 1

T2 sequence (Q969F8 whole entry L364H): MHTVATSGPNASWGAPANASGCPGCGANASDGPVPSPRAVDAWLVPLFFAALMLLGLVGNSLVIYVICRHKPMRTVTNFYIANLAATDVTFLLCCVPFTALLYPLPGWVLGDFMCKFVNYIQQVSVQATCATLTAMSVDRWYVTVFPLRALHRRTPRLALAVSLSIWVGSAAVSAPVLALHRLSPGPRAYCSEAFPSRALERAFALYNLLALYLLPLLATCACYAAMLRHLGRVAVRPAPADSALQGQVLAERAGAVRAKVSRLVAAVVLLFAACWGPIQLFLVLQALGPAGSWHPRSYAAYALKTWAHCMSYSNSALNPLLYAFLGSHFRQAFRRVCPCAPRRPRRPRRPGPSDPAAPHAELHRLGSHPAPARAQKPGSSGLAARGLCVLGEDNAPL
T1 sequence (Q969F8 whole entry L364H): as above

Compound	intracellular Ca ion level-increasing activity [specific activity to Metastin (1-54)] (hOT7T175 [1])	Specific Act. (EC50/MS10 EC50) (hOT7T175 [2])	Teststerone level in Blood [3]	Teststerone level in Blood [4]	Specific Act. (intracellular Ca ion level-increasing activity, specific activity to Metastin (1-54)) (hOT7T175 [5])
3-(3-Pyridyl)propionyl-Asn-Ser-Phe-AzaGly-Leu-Arg(Me)-Trp-NH2 [Compound No. 386]	7	2.9	23%		
3-Phenylpropionyl-Asn-Ser-Phe(4F)-AzaGly-Leu-Arg(Me)-Trp-NH2 [Compound No. 508]	10	1.0	9%		
3-Phenylpropionyl-Asn-Ser-Phe-AzaGly-Leu-Arg(Me)-Trp-NH2 [Compound No. 499]	10	1.4	2%	32%	
3-Phenylpropionyl-Asn-Thr-Phe-AzaGly-Leu-Arg(Me)-Trp-NH2 [Compound No. 505]	20	0.7	40%		
4-Pyridinecarbonyl-Phe-AzaGly-Leu-Arg(Me)-Trp-NH2 [Compound No. 436]	5	1.4	35%		
CNC(=N)NCCC[C@H](NC(=O)[C@H](CC(C)C)NC(=O)CNC(=O)[C@H](Cc1ccccc1)NC(=O)[C@H](CO)NC(=O)[C@H](CC(N)=O)NC(=O)[C@H](Cc1c[nH]c2ccccc12)NC(=O)[C@H](CC(N)=O)NC(=O)[C@H](N)Cc1ccc(O)cc1)C(=O)N[C@@H](Cc1ccccc1)C(N)=O [Compound No. 141]		1.6	31%		10
CC(C)C[C@H](NC(=O)NNC(=O)[C@H](Cc1ccccc1)NC(=O)[C@H](CO)NC(=O)[C@H](CC(N)=O)NC(=O)[C@H](Cc1c[nH]c2ccccc12)NC(=O)[C@H](CC(N)=O)NC(=O)[C@@H](N)Cc1ccc(O)cc1)C(=O)N[C@@H](CCCNC(=N)N)C(=O)N[C@@H](Cc1ccccc1)C(N)=O [Compound No. 176, Tyr-Asn-Trp-Asn-Ser-Phe-AzaGly-Leu-Arg-Phe-NH2]		1.3	12%		5
CNC(=N)NCCC[C@H](NC(=O)[C@H](CC(C)C)NC(=O)NNC(=O)[C@H](Cc1ccccc1)NC(=O)[C@H](CO)NC(=O)[C@H](CC(N)=O)NC(=O)CCc1ccccc1)C(=O)N[C@@H](Cc1ccccc1)C(N)=O [Compound No. 269, 3-Phenylpropionyl-Asn-Ser-Phe-AzaGly-Leu-Arg(Me)-Phe-NH2] (Hydrocinnamoyl-NSF[azaGly]L[Arg(Me)]F-NH2)	3	3.4	7%		
Bz-NSF[azaGly]L[Arg(Me)]W-NH2 [Compound No. 509]	20	2.0	2%		
D-Tyr-D-Pya(4)-Ala-Ser-Phe-AzaGly-Leu-Arg(Me)-Trp-NH2 [Compound No. 492]	5	1.1	65%		
D-Tyr-D-Pya(4)-Asn-Ser-Cha-Gly-Leu-Arg(Me)-Trp-NH2 [Compound No. 496]	5	0.7	3%		
D-Tyr-D-Pya(4)-Asn-Ser-Phe-AzaGly-Leu-Arg(Me)-Trp-NH2 [Compound No. 385]	10	0.7	2%	33%	
D-Tyr-D-Pya(4)-Asn-Val-Phe-AzaGly-Leu-Arg(Me)-Trp-NH2 [Compound No. 515]	10	1.0	2%		
H-YNWNSFGLRW-NH2 [Compound No. 134]		0.5	50%		30
[dY][dW]NTF[azaGly]L[Arg(Me)]W-NH2 [Compound No. 512]	30	0.8	2%	38%	
